Where two headings read alike, the source gives them in different places.
Test system: Purified TDH derived from Cupriavidus necator NBRC 102504
Test: Effect of metal ions and inhibitors on TDH activity (residual activity)
Assay type: biochemical
[1] = metal ions final concentration 1 mM, 30° C. for 1 hour, relative to enzyme without additives
[2] = inhibitors final concentration 10 mM, 30° C. for 1 hour, None = 100
[3] = inhibitors final concentration 10 mM, 30° C. for 1 hour

For `O=[N+]([O-])[O-].[Ag+]` [AgNO3], the “Relative activity (residual TDH activity)” value [1] was 100%.

For `[Cl][Al]([Cl])[Cl]` [AlCl3], the “Relative activity (residual TDH activity)” value [1] was 118%.

In the case of `[Ba+2].[Cl-].[Cl-]` [BaCl2], the “Relative activity (residual TDH activity)” value [1] is reported as 113%.

In the case of `[Ca+2].[Cl-].[Cl-]` [CaCl2], the “Relative activity (residual TDH activity)” value [1] is reported as 109%.

In the case of `[Cl][Cr]([Cl])[Cl]` [CrCl3], the “Relative activity (residual TDH activity)” value [1] is reported as 110%.

For `[Cl-].[Cs+]` [CsCl], the “Relative activity (residual TDH activity)” value [1] was 117%.

For `[Cl][Cu][Cl]` [CuCl2], the “Relative activity (residual TDH activity)” value [1] was 117%.

For `O=S(=O)([O-])[O-].[Cu+2]` [CuSO4], the “Relative activity (residual TDH activity)” value [1] was 115%.

In the case of `CCOC(=O)OC(=O)OCC` [DEPC], the “Relative activity (%) (residual TDH activity)” value [2] is reported as 92%.

For `O[C@@H](CS)[C@@H](O)CS` [DTT], the “Inhibition of TDH activity (in words)” value [3] was “Nor did the reducing agents β-mercaptoethanol and DTT inhibit enzymatic activity” and the “Relative activity (%) (residual TDH activity)” value [2] was 125%.

For `O=C(O)CN(CCN(CC(=O)O)CC(=O)O)CC(=O)O` [EDTA], the “Inhibition of TDH activity (in words)” value [3] was “not inhibited” and the “Relative activity (%) (residual TDH activity)” value [2] was 103%.

In the case of `O=C(O)CN(CCOCCOCCN(CC(=O)O)CC(=O)O)CC(=O)O` [EGTA], the “Inhibition of TDH activity (in words)” value [3] is reported as “not inhibited” and the “Relative activity (%) (residual TDH activity)” value [2] is reported as 94%.

With `[Cl][Fe][Cl]` [FeCl2] the “Relative activity (residual TDH activity)” value [1] was 68%.

`[Cl][Fe]([Cl])[Cl]` [FeCl3] was tested, and the “Relative activity (residual TDH activity)” value [1] was 27%.

In the case of `[Cl][Hg][Cl]` [HgCl2], the “Relative activity (%) (residual TDH activity)” value is reported as 23%.

`NC(=O)CI` [Iodoacetamide] was tested, and the “Inhibition of TDH activity (in words)” value [3] was “inhibited” and the “Relative activity (%) (residual TDH activity)” value [2] was 0.8%.

In the case of `O=C(O)CI` [Iodoacetic acid], the “Relative activity (%) (residual TDH activity)” value is reported as 48%.

In the case of `[Cl-].[Li+]` [LiCl], the “Relative activity (residual TDH activity)” value [1] is reported as 109%.

In the case of `[Cl-].[Cl-].[Mg+2]` [MgCl2], the “Relative activity (residual TDH activity)” value [1] is reported as 112%.

With `O=S(=O)([O-])[O-].[Mg+2]` [MgSO4] the “Relative activity (residual TDH activity)” value [1] was 112%.

With `[Cl][Mn][Cl]` [MnCl2] the “Relative activity (residual TDH activity)” value [1] was 102%.

With `O=S(=O)([O-])[O-].[Mn+2]` [MnSO4] the “Relative activity (residual TDH activity)” value [1] was 114%.

`CCN1C(=O)C=CC1=O` [NEM] was tested, and the “Inhibition of TDH activity (in words)” value [3] was “inhibited” and the “Relative activity (%) (residual TDH activity)” value [2] was 0.0%.

With `[Na+].[Na+].[O]=[Mo](=[O])([O-])[O-]` [NaMoO4] the “Relative activity (residual TDH activity)” value [1] was 113%.

`[N-]=[N+]=[N-].[Na+]` [NaN3] was tested, and the “Relative activity (%) (residual TDH activity)” value was 12%.

`[Cl][Ni][Cl]` [NiCl2] was tested, and the “Relative activity (residual TDH activity)” value [1] was 119%.

For `O=C(O)c1cc[c]([Hg][Cl])cc1` [PCMB], the “Relative activity (%) (residual TDH activity)” value [2] was 6.2%.

With `COS(=O)(=O)[O-].C[n+]1c2ccccc2nc2ccccc21` [PMS, phenazine methosulfate] the “Inhibition of TDH activity (in words)” value [3] was “inhibited” and the “Relative activity (%) (residual TDH activity)” value [2] was 0.0%.

For `[Cl][Pb][Cl]` [PbCl2], the “Relative activity (residual TDH activity)” value [1] was 118%.

For `[Cl][Sn][Cl]` [SnCl2], the “Relative activity (residual TDH activity)” value [1] was 84%.

With `[Cl-].[Cl-].[Zn+2]` [ZnCl2] the “Relative activity (residual TDH activity)” value [1] was 105%.

With `O=S(=O)([O-])[O-].[Zn+2]` [ZnSO4] the “Relative activity (residual TDH activity)” value [1] was 109%.

`OCCS` [β-mercaptoethanol] was tested, and the “Inhibition of TDH activity (in words)” value [3] was “Nor did the reducing agents β-mercaptoethanol and DTT inhibit enzymatic activity” and the “Relative activity (%) (residual TDH activity)” value [2] was 114%.

With Calcium pantothenate the “Inhibition of TDH activity (in words)” value [3] was “slight inhibiting” and the “Relative activity (%) (residual TDH activity)” value [2] was 95.0%.

CoCl2 was tested, and the “Relative activity (residual TDH activity)” value was 115%.

Reference: patent publication US8785147B2, “L-threonine analysis method and L-threonine dehydrogenase” (Toyama Prefecture, priority 2010, dated 2014)
